{
  "source": "paper PMC3269522",
  "about": "(2011)",
  "target": "CyaB (Pseudomonas aeruginosa, UniProt Q9HZ23)",
  "experiment": "adenylyl cyclase activity assay with purified enzyme",
  "type": "biochemical",
  "data": [
    {"substance": "KH7.148", "values": [
      {"measurement": "IC50", "value": "~10", "unit": "µM"}
    ]}
  ]
}
